How the values were obtained:
[1] = biological target: T1, 5-HT1A receptor (Homo sapiens, UniProt P08908); test: Radioligand binding affinity on 5-HT1A receptor ([3H]8-OH-DPAT); settings: 5-HT1A receptor protein expressed in HEK-293 cells
T1 sequence (P08908 1-422): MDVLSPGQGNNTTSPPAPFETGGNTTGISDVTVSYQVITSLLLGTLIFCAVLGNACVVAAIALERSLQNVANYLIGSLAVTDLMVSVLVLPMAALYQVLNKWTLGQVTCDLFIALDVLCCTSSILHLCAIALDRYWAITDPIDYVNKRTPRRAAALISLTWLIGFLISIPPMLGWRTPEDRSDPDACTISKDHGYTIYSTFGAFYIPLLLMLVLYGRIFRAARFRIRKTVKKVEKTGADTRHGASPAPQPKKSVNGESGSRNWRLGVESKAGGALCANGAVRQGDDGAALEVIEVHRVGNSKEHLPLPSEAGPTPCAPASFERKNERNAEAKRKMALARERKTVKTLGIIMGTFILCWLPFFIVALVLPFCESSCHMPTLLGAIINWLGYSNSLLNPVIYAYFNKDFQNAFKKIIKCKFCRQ
Procedure: (§1) (1) Determination of the affinity of the diarylo[a,g]quinolizines of formula (I) and derivatives thereof on dopamine D1, dopamine D2, 5-HT1A and 5-HT2A receptors.
(§2) The compound of the invention at different concentrations (10^−5 M-10^−11 M), an isotope receptor ligand and a receptor protein were loaded into a reaction tube, incubated at 30° C. in a water bath for 60 min, and then terminated in a refrigerator. The mixture was filtered through suction filtration using GF/C glass fiber paper on a Millipore filter (millipore) cell sample collector, and dried. The resulting sample was placed into a 0.5 mL tube, added with 500 μL of liquid scintillation fluid, and counted for measuring the intensity of radioativity.
For 5-HT1A receptor: isotope receptor ligand [3H]8-OH-DPAT; 5-HT1A receptor protein expressed in HEK-293 cells;
(§3) Firstly, the above […] were dissolved in DMSO and then diluted with double distilled water to the appropriate concentration (10^−5 M-10^−11 M).
(§4) (+) Butaclamo was purchased from RBI Company, GF/C glass fiber filter paper was purchased from Whatman Co., liquid scintillation fluid (dopamine D1, D2 receptors)/liposoluble scintillation fluid (5-HT1A. 5-HT2A receptor), Beckman LS-6500 multi-function liquid scintillation counter.

[2] = biological target: T2, 5-HT2A receptor (Homo sapiens, UniProt P28223); test: Radioligand binding affinity on 5-HT2A receptor ([3H]-Ketanserin); settings: 5-HT2A receptor protein expressed in HEK-293 cells
T2 construct: expressed in transfected cells; host or cells: HEK-293
Procedure: as §1, §2
For 5-HT2A receptor: isotope receptor ligand [3H]-Ketanserin; 5-HT2A receptor protein expressed in HEK-293 cells;
as §3, §4

[3] = biological target: dopamine D1 receptor (Macaca mulatta, UniProt O77680); test: Radioligand binding affinity on dopamine D1 receptor ([3H]-SCH23390); settings: D1 receptor protein expressed in HEK-293 cells
Procedure: as §2, §3, §4

[4] = biological target: dopamine D2 receptor (Rattus norvegicus, UniProt P61169); test: Radioligand binding affinity on dopamine D2 receptor ([3H]Spiperone); settings: D2 receptor protein expressed in HEK-293 cells
Procedure: as §2, §3, §4

dopamine D1 receptor, sequence (O77680 whole entry): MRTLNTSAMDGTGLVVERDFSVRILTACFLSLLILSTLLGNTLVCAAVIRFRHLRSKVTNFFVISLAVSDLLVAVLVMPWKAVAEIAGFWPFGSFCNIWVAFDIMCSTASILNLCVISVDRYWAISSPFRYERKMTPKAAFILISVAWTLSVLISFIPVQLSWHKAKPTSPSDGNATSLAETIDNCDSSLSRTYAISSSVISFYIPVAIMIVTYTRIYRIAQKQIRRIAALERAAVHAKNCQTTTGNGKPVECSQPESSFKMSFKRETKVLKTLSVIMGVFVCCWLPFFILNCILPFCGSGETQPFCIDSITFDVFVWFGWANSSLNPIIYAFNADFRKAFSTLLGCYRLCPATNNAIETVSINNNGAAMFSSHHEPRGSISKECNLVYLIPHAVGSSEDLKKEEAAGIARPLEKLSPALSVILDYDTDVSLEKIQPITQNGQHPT
T2 sequence (P28223 whole entry): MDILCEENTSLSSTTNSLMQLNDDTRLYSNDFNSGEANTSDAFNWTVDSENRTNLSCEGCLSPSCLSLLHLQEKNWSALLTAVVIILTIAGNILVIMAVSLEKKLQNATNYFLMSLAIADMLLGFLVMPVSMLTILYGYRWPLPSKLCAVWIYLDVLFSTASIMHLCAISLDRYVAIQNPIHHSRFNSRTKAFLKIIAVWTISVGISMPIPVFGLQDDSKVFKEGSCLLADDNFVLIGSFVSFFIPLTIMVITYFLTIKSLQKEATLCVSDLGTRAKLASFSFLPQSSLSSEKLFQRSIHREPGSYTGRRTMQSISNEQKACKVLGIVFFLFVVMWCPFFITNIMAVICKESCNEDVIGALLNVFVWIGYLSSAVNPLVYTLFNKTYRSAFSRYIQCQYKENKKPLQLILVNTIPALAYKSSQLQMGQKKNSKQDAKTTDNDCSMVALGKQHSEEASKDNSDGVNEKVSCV
dopamine D2 receptor, sequence (P61169 whole entry): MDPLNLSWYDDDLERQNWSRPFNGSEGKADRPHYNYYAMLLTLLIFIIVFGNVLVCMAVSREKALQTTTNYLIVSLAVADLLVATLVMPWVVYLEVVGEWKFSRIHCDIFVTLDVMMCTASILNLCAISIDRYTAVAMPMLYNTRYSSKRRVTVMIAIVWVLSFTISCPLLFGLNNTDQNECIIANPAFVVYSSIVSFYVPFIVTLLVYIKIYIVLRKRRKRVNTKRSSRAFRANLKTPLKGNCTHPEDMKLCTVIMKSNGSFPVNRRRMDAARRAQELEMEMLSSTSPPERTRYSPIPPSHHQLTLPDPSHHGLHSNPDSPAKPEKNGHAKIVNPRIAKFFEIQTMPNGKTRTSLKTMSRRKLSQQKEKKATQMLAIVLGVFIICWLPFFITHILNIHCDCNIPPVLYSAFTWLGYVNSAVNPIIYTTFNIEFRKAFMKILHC

Compound | 5-HT1A receptor inhibition % [1] [%] | IC50 [1] [µM] | Ki [1] [µM] | 5-HT2A receptor inhibition % [2] [%] | D1 receptor inhibition % [3] [%] | IC50 [3] [µM] | Ki [3] [µM] | D2 receptor inhibition % [4] [%] | IC50 [2] [µM] | Ki [2] [µM] | IC50 [4] [µM] | Ki [4] [µM]
COc1cc2c(cc1OC)CN1CCc3c([nH]c4ccccc34)[C@@H]1C2 [AI001, (S)-2,3-dimethoxy-5,7,8,13,13b,14-hexahydroindolo [2′,3′:3,4]pyrido[1,2-b]isoquinoline] | 88.22 | 0.911 ± 0.13 | 0.728 ± 0.104 | 50.46 |  |  |  |  |  |  |  | 
COc1c(O)ccc2c1CN1CCc3sc(C)cc3[C@@H]1C2 [AS003, (S)-2-methyl-8-methoxy-9-hydroxy-4,7,12,12a-tetrahydro-5H-benzo[g]thieno[3,2-a]quinolizine] | 91.91 | 0.514 ± 0.111 | 0.405 ± 0.0871 | 90.43 | 99.80 | 0.074 ± 0.0043 | 0.0379 ± 0.00221 | 40.31 | 2.23 ± 0.0465 | 1.07 ± 0.0224 |  | 
COc1c(O)ccc2c1CN1CCc3sc(C)cc3[C@H]1C2 [AS004, (R)-2-methyl-8-methoxy-9-hydroxy-4,7,12,12a-tetrahydro-5H-benzo[g]thieno[3,2-a]quinolizine] | 51.69 |  |  | 44.24 | 86.32 | 0.23 ± 0.0448 | 0.115 ± 0.0224 | 6.97 |  |  |  | 
CCc1cc2c(s1)CCN1Cc3c(ccc(O)c3OC)C[C@@H]21 [AS005, (S)-2-ethyl-8-methoxy-9-hydroxy-4,7,12,12a-tetrahydro-5H-benzo[g]thieno[3,2-a]quinolizine] | 98.58 | 0.162 ± 0.0038 | 0.13 ± 0.00303 | 76.11 | 98.23 | 0.0868 ± 0.0113 | 0.0476 ± 0.00618 | 62.98 |  |  |  | 
COc1ccc2c(c1OC)CN1CCc3sccc3[C@@H]1C2 [AS022, (S)-8,9-dimethoxy-4,7,12,12a-tetrahydro-5H-benzo [g]thieno[3,2-a]quinolizine] | 6.60 |  |  | 32.31 | 69.25 |  |  | 5.21 |  |  |  | 
COc1ccc2c(c1OC)CN1CCc3sc(C)cc3[C@@H]1C2 [AS023, (S)-2-methyl-8,9-dimethoxy-4,7,12,12a-tetrahydro-5H-benzo[g]thieno[3,2-a]quinolizine] | 76.45 |  |  | 60.08 | 89.62 | 0.714 ± 0.0157 | 0.357 ± 0.00783 | 22.17 |  |  |  | 
COc1ccc(OC)c2c1C[C@H]1c3cc(C)sc3CCN1C2 [AS032, (S)-2-methyl-8,11-dimethoxy-4,7,12,12a-tetrahydro-5H-benzo[g]thieno[3,2-a]quinolizine] | 74.09 |  |  | 30.01 | 96.00 | 0.416 ± 0.0269 | 0.159 ± 0.0289 | 13.75 |  |  |  | 
COc1c(N)ccc2c1CN1CCc3sccc3[C@@H]1C2 [AS050, (S)-8-methoxy-9-amino-4,7,12,12a-tetrahydro-5H-benzo[g]thieno[3,2-a]quinolizine] | 49.26 |  |  | 74.25 | 99.02 | 1.52 ± 0.357 | 0.685 ± 0.0722 | 22.63 |  |  |  | 
COc1c(NC(C)=O)ccc2c1CN1CCc3sccc3[C@@H]1C2 [AS051, (S)-8-methoxy-9-acetylamino-4,7,12,12a-tetrahydro-5H-benzo[g]thieno[3,2-a]quinolizine] | 33.90 |  |  | 46.59 | 76.38 |  |  | 1.29 |  |  |  | 
COc1cc2c(cc1O)[C@@H]1Cc3sccc3CN1CC2 [DS001, (S)-2-hydroxy-3-methoxy-5,8,12,12a-tetrahydro-6H-benzo[a]thieno[3,2-g]quinolizine] |  |  |  |  |  | 0.172 ± 0.00849 | 0.087 ± 0.0043 |  |  |  | 0.396 ± 0.0682 | 0.088 ± 0.0152
CCc1cc2c(s1)C[C@H]1c3cc(O)c(OC)cc3CCN1C2 [DS003, (S)-2-hydroxy-3-methoxy-10-ethyl-5,8,12,12a-tetrahydro-6H-benzo[a]thieno[3,2-g]quinolizine] | 92.10 | 1.25 ± 0.237 | 0.998 ± 0.19 | 45.15 | 98.16 | 0.0481 ± 0.00068 | 0.0263 ± 0.00037 | 98.50 |  |  | 0.18 ± 0.0168 | 0.0408 ± 0.0038
CCCc1cc2c(s1)C[C@H]1c3cc(O)c(OC)cc3CCN1C2 [DS005, (S)-2-hydroxy-3-methoxy-10-n-propyl-5,8,12,12a-tetrahydro-6H-benzo[a]thieno[3,2-g]quinolizine] | 85.33 | 2.46 ± 0.286 | 1.97 ± 0.229 | 29.55 | 96.74 | 0.113 ± 0.0126 | 0.0617 ± 0.00688 | 96.31 |  |  | 0.171 ± 0.0095 | 0.0386 ± 0.00215
COc1cc2c(cc1O)[C@@H]1Cc3sc(CC(C)C)cc3CN1CC2 [DS006, (S)-2-hydroxy-3-methoxy-10-(2-methylpropyl)-5,8, 12,12a-tetrahydro-6H-benzo[a]thieno[3,2-g]quinolizine] | 83.71 |  |  | 50.31 |  |  |  |  |  |  |  | 
COc1cc2c(cc1O)[C@@H]1Cc3sc(CCC(C)C)cc3CN1CC2 [DS008, (S)-2-hydroxy-3-methoxy-10-(3-methylbutyl)-5,8,12, 12a-tetrahydro-6H-benzo[a]thieno[3,2-g]quinolizine] |  |  |  |  | 88.78 |  |  | 90.45 |  |  | 0.239 ± 0.0147 | 0.0795 ± 0.00483
COc1cc2c(cc1O)[C@@H]1Cc3sc(CCCCl)cc3CN1CC2 [DS015, (S)-2-hydroxy-3-methoxy-10-(3-chloropropyl)-5,8, 12,12a-tetrahydro-6H-benzo[a]thieno[3,2-g]quinolizine] | 92.24 | 0.148 ± 0.0286 | 0.119 ± 0.023 |  | 96.10 | 0.144 ± 0.00535 | 0.077 ± 0.00285 | 97.19 |  |  | 0.0551 ± 0.00689 | 0.0184 ± 0.0023
COc1cc2c(cc1O)[C@@H]1Cc3sc(CCCCCl)cc3CN1CC2 [DS016, (S)-2-hydroxy-3-methoxy-10-(4-chlorobutyl)-5,8,12, 12a-tetrahydro-6H-benzo[a]thieno[3,2-g]quinolizine] |  |  |  |  | 95.84 | 0.297 ± 0.0201 | 0.158 ± 0.0107 | 93.54 |  |  | 0.15 ± 0.0234 | 0.0499 ± 0.0078

— patent US9751882B2, “Diaryl[A, G]quinolizidine compound, preparation method therefor, pharmaceutical composition, and uses thereof” (SHANGHAI INSTITUTE OF MATERIA MEDICA, CHINESE ACADEMY OF …, priority 2012, dated 2017)
